# Laboratory results reported in US11629171B2, “Beta-hairpin peptidomimetics” (POLYPHOR AG, priority 2017, dated 2023).
# Where a SMILES comes first, the peptide text is derived from it. Bridges are numbered along the chain shown (N, C = ends). Roman numbers before positions name the chains, in order. [ ]: non-standard residue; d: D form. The star is where a group is joined. Thr(ol) = C[C@@H](O)[C@H](N)CO; Pen = CC(C)(S)[C@H](N)C(=O)O; Tle = CC(C)(C)[C@H](N)C(=O)O; Hiv = CC(C)[C@H](O)C(=O)O; Isovaleryl = CC(C)CC(=O)*; dDab = NCC[C@@H](N)C(=O)O; hCys = N[C@@H](CCS)C(=O)O; hSer = N[C@@H](CCO)C(=O)O; NHCH(CH2OH)2 = OCC(CO)N*; Orn = NCCC[C@H](N)C(=O)O; Dab = NCC[C@H](N)C(=O)O; Dap = NC[C@H](N)C(=O)O
# Columns and labels:
# Format in all cases: cell-based
# [1] = tested on: Acinetobacter baumannii DSM 30008; details: DSM 30008
# In short: (§1)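 Peptides are tested in serial two-fold dilutions against about 10^6 CFU/mL in MH-II broth containing 0.002% P-80 (v/v, final). Plates incubate 18-20 h at 35° C, and the MIC is the lowest peptide level (μg/mL) showing no visible growth.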
# [2] = tested on: Escherichia coli ATCC 25922; details: ATCC 25922
# In short: as §1
# [3] = tested on: Escherichia coli 926415; details: 926415
# In short: as §1
# [4] = tested on: Acinetobacter baumannii 872842; details: 872842
# In short: as §1
# [5] = tested on: Enterobacter cloacae 848840; details: 848840
# In short: as §1
# [6] = tested on: Klebsiella pneumoniae 968733; details: 968733
# In short: as §1
# [7] = tested on: Klebsiella pneumoniae SSI #3010; details: SSI #3010
# In short: as §1
# [8] = tested on: Pseudomonas aeruginosa ATCC 27853; details: ATCC 27853
# In short: as §1
# [9] = tested on: human red blood cells (hRBC); test: Hemolysis; details: red cells of human, 1 h, 200
# In short: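 Percent hemolysis relative to 2% Triton X-100 (100%) and PBS/10% water (0%), from blank-corrected OD540 of diluted supernatants. Peptides tested at 200 μg/mL against 20% (v/v) washed human erythrocytes, 1 h, 37° C, shaking at 300 rpm.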
Structure (SMILES),MIC [1] [mg/L],MIC [2] [mg/L],MIC [3] [mg/L],MIC [4] [mg/L],MIC [5] [mg/L],MIC [6] [mg/L],MIC [7] [mg/L],MIC [8] [mg/L],Hemolysis at 200 μg/mL [9] [%]
CC(=O)N[C@H](C(=O)N[C@H]1CSSC[C@@H](C(N)=O)NC(=O)[C@H](C(C)(C)C)NC(=O)[C@H](CO)NC(=O)[C@H](Cc2c[nH]c3ccccc23)NC(=O)[C@H](CO)NC(=O)[C@@H](CCN)NC(=O)[C@H](CCC(=O)N[C@@H](CCN)C(=O)N[C@H](C(=O)N[C@@H](CN)C(=O)N[C@H]2CCNC(=O)[C@H]([C@@H](C)O)NC(=O)[C@H](CCN)NC(=O)[C@H](CCN)NC(=O)[C@H](CC(C)C)NC(=O)[C@@H](CC(C)C)NC(=O)[C@H](CCN)NC2=O)[C@@H](C)O)NC(=O)[C@H](CN)NC(=O)[C@H](Cc2ccc(O)cc2)NC1=O)C(C)C [Example 8] (I: Ac-VCY[Dap]E[dDab]SWS[Tle]C-NH2 / II: [Dab]T[Dap][Dab][Dab][dL]L[Dab][Dab]T; disulfide I:2-I:11; amide I:5-II:N; lactam II:4-II:C),0.125,0.0625,0.5,0.0625,0.25,0.25,0.125,0.125,<1
CC(C)C[C@@H]1NC(=O)[C@@H](CC(C)C)NC(=O)[C@H](CCN)NC(=O)[C@@H](NC(=O)[C@H](CCN)NC(=O)[C@@H](NC(=O)[C@H](CCN)NC(=O)CC[C@@H]2NC(=O)[C@@H](NC(=O)[C@H](Cc3ccc(O)cc3)NC(=O)[C@@H](NC(=O)[C@@H](N)C(C)C)[C@@H](C)O)CSSC[C@@H](C(=O)N[C@H](C(=O)N[C@@H](C)C(=O)N[C@@H](CO)C(=O)O)C(C)(C)C)NC(=O)[C@H](Cc3c[nH]c4ccccc34)NC(=O)[C@H]([C@@H](C)O)NC(=O)[C@@H](CCN)NC2=O)[C@@H](C)O)CCNC(=O)[C@H]([C@@H](C)O)NC(=O)[C@H](CCN)NC(=O)[C@H](CCN)NC1=O [Ex. 186] (I: H-VTYCE[dDab]TWC[Tle]AS-OH / II: [Dab]T[Dab][Dab][Dab][dL]L[Dab][Dab]T; disulfide I:4-I:9; amide I:5-II:N; lactam II:4-II:C),0.0625,0.125,1,0.25,0.25,8,0.125,0.125,<1
CC(C)C[C@@H]1NC(=O)[C@@H](CC(C)C)NC(=O)[C@H](CCN)NC(=O)[C@@H](NC(=O)[C@H](CCN)NC(=O)[C@@H](NC(=O)[C@H](CCN)NC(=O)CC[C@@H]2NC(=O)[C@H](CCN)NC(=O)[C@H](Cc3ccc(O)cc3)NC(=O)[C@@H](NC(=O)[C@@H](O)C(C)C)CSSC[C@@H](C(=O)N[C@H](CO)[C@@H](C)O)NC(=O)[C@H](C(C)(C)C)NC(=O)CNC(=O)[C@H](Cc3c[nH]c4ccccc34)NC(=O)[C@H](CCO)NC(=O)[C@@H](CCN)NC2=O)[C@@H](C)O)CCNC(=O)[C@H]([C@@H](C)O)NC(=O)[C@H](CCN)NC(=O)[C@H](CCN)NC1=O [Ex. 87] (I: H-[Hiv]CY[Dab]E[dDab][hSer]WG[Tle]C[Thr(ol)] / II: [Dab]T[Dab][Dab][Dab][dL]L[Dab][Dab]T; disulfide I:2-I:11; amide I:5-II:N; lactam II:4-II:C),0.0625,0.0625,0.0625,0.25,2,0.125,0.125,0.125,<1
CC(C)C[C@@H]1NC(=O)[C@@H](CC(C)C)NC(=O)[C@H](CCN)NC(=O)[C@@H](NC(=O)[C@H](CCN)NC(=O)[C@@H](NC(=O)[C@H](CCN)NC(=O)CC[C@@H]2NC(=O)[C@H](CCN)NC(=O)[C@H](Cc3ccc(O)cc3)NC(=O)[C@@H](NC(=O)[C@@H](O)C(C)C)CSSC(C)(C)[C@@H](C(=O)N[C@H](CO)[C@@H](C)O)NC(=O)[C@H](C(C)(C)C)NC(=O)[C@H](CO)NC(=O)[C@H](Cc3c[nH]c4ccccc34)NC(=O)[C@H](CCO)NC(=O)[C@@H](CCN)NC2=O)[C@@H](C)O)CCNC(=O)[C@H]([C@@H](C)O)NC(=O)[C@H](CCN)NC(=O)[C@H](CCN)NC1=O [Ex. 85] (I: H-[Hiv]CY[Dab]E[dDab][hSer]WS[Tle][Pen][Thr(ol)] / II: [Dab]T[Dab][Dab][Dab][dL]L[Dab][Dab]T; disulfide I:2-I:11; amide I:5-II:N; lactam II:4-II:C),0.25,0.0625,0.25,0.25,0.125,0.25,0.125,0.25,1
"CC(=O)N[C@H](C(=O)N[C@H]1CCCNC(=O)[C@@H](Cc2ccc(O)cc2)NC(=O)[C@H](C(C)(C)C)NC(=O)[C@H](CO)NC(=O)[C@H](Cc2c[nH]c3ccccc23)NC(=O)[C@H](CCO)NC(=O)[C@@H](CCN)NC(=O)[C@H](CCC(=O)N[C@@H](CCN)C(=O)N[C@H](C(=O)N[C@@H](CN)C(=O)N[C@H]2CCNC(=O)[C@H]([C@@H](C)O)NC(=O)[C@H](CCN)NC(=O)[C@H](CCN)NC(=O)[C@H](CC(C)C)NC(=O)[C@@H](CC(C)C)NC(=O)[C@H](CCN)NC2=O)[C@@H](C)O)NC(=O)[C@H](CO)NC(=O)[C@H](Cc2ccc(O)cc2)NC1=O)C(C)C [Ex. 26] (I: Ac-V[Orn]YSE[dDab][hSer]WS[Tle][dY] / II: [Dab]T[Dap][Dab][Dab][dL]L[Dab][Dab]T; lactam I:2-I:C, II:4-II:C; amide I:5-II:N)",0.03125,0.0625,0.125,0.125,0.25,0.25,0.125,0.25,1
CC(C)CC(=O)N[C@H]1CSSC[C@@H](C(=O)NC(CO)CO)NC(=O)[C@H](C(C)(C)C)NC(=O)[C@H](CO)NC(=O)[C@H](Cc2c[nH]c3ccccc23)NC(=O)[C@H]([C@@H](C)O)NC(=O)[C@@H](CCN)NC(=O)[C@H](CCC(=O)N[C@@H](CCN)C(=O)N[C@H](C(=O)N[C@@H](CCN)C(=O)N[C@H]2CCNC(=O)[C@H]([C@@H](C)O)NC(=O)[C@H](CCN)NC(=O)[C@H](CCN)NC(=O)[C@H](CC(C)C)NC(=O)[C@@H](CC(C)C)NC(=O)[C@H](CCN)NC2=O)[C@@H](C)O)NC(=O)[C@H](CN)NC(=O)[C@H](Cc2ccc(O)cc2)NC1=O [Example 5] (I: Isovaleryl-CY[Dap]E[dDab]TWS[Tle]C-{NHCH(CH2OH)2} / II: [Dab]T[Dab][Dab][Dab][dL]L[Dab][Dab]T; disulfide I:1-I:10; amide I:4-II:N; lactam II:4-II:C),0.0625,0.0625,0.125,0.125,0.125,0.25,0.125,0.125,<1
CC(=O)N[C@H]1CSSC[C@@H](C(N)=O)NC(=O)[C@H](CO)NC(=O)[C@H](C)NC(=O)[C@H](C(C)(C)C)NC(=O)[C@H](CO)NC(=O)[C@H](Cc2c[nH]c3ccccc23)NC(=O)[C@H](CO)NC(=O)[C@@H](CCN)NC(=O)[C@H](CCC(=O)N[C@@H](CCN)C(=O)N[C@H](C(=O)N[C@@H](CN)C(=O)N[C@H]2CCNC(=O)[C@H]([C@@H](C)O)NC(=O)[C@H](CCN)NC(=O)[C@H](CCN)NC(=O)[C@H](CC(C)C)NC(=O)[C@@H](CC(C)C)NC(=O)[C@H](CCN)NC2=O)[C@@H](C)O)NC(=O)[C@H](CN)NC(=O)[C@H](Cc2ccc(O)cc2)NC(=O)[C@H]([C@@H](C)O)NC(=O)[C@H](C(C)C)NC1=O [Ex. 244] (I: Ac-CVTY[Dap]E[dDab]SWS[Tle]ASC-NH2 / II: [Dab]T[Dap][Dab][Dab][dL]L[Dab][Dab]T; disulfide I:1-I:14; amide I:6-II:N; lactam II:4-II:C),0.03125,0.03125,0.125,0.0625,0.0625,0.0625,0.0625,0.25,1
CC(=O)N[C@H](C(=O)N[C@H]1CCSSC[C@@H](C(=O)N[C@@H](CO)C(N)=O)NC(=O)[C@H](C(C)(C)C)NC(=O)[C@H](CO)NC(=O)[C@H](Cc2c[nH]c3ccccc23)NC(=O)[C@H](CO)NC(=O)[C@@H](CCN)NC(=O)[C@H](CCC(=O)N[C@@H](CCN)C(=O)N[C@H](C(=O)N[C@@H](CN)C(=O)N[C@H]2CCNC(=O)[C@H]([C@@H](C)O)NC(=O)[C@H](CCN)NC(=O)[C@H](CCN)NC(=O)[C@H](CC(C)C)NC(=O)[C@@H](CC(C)C)NC(=O)[C@H](CCN)NC2=O)[C@@H](C)O)NC(=O)[C@H](CN)NC(=O)[C@H](Cc2ccc(O)cc2)NC1=O)C(C)C [Ex. 121] (I: Ac-V[hCys]Y[Dap]E[dDab]SWS[Tle]CS-NH2 / II: [Dab]T[Dap][Dab][Dab][dL]L[Dab][Dab]T; disulfide I:2-I:11; amide I:5-II:N; lactam II:4-II:C),0.0625,0.0625,0.125,0.0625,0.125,0.25,0.125,0.125,<1
